Experimental data from patent publication US12157741B2, “Macrocyclic inhibitors of DYRK1A” (DANA-FARBER CANCER INSTITUTE, INC., priority 2018, dated 2024).
Read-outs that look alike come from different tables or passages of the source.

Tests used:
Format in all cases: binding
various enzymes [1] = target: various enzymes (Homo sapiens, UniProt Q96RR4); settings: compound 1 uM
Method: (§1) Ambit profiling was conducted in accordance with the manufacturer's instructions.

various enzymes [2] = target: various enzymes (Homo sapiens, UniProt P11309); settings: compound 1 uM
Method: as §1

various enzymes [3] = target: various enzymes (Homo sapiens, UniProt Q6ZWH5); settings: compound 1 uM
Method: as §1

various enzymes [4] = target: various enzymes (Homo sapiens, UniProt Q06187); settings: compound 1 uM
Method: as §1

various enzymes [5] = target: T1, various enzymes (Homo sapiens, UniProt Q9NRM7); settings: compound 1 uM
T1 sequence (Q9NRM7 1-1088): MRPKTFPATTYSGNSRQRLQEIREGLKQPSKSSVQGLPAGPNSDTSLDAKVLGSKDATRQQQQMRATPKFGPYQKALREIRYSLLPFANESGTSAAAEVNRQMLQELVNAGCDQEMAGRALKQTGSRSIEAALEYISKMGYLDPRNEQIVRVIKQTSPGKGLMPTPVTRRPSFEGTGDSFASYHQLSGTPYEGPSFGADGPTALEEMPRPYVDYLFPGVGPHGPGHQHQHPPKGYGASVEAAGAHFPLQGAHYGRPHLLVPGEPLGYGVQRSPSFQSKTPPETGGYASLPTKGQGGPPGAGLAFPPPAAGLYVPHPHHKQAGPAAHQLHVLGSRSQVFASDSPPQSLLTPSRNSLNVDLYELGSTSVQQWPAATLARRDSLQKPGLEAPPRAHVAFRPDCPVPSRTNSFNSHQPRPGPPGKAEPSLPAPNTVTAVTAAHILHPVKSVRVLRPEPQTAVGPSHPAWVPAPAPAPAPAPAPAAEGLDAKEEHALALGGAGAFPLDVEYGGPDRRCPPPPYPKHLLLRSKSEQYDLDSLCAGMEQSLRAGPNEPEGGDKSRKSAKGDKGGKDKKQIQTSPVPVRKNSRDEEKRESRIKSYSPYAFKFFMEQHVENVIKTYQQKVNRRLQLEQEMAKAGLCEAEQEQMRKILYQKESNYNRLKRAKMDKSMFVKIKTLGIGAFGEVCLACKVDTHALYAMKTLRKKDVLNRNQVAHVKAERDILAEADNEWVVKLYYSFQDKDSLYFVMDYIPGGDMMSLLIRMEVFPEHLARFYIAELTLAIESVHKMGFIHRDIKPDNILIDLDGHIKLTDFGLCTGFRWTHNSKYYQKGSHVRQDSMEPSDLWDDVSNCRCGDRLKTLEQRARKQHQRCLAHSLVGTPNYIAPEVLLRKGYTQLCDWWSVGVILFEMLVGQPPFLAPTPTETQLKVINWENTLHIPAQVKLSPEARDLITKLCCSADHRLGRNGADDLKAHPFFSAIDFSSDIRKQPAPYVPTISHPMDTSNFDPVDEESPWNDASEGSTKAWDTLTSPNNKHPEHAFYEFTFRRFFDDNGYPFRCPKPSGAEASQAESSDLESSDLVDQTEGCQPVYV
Method: as §1

various enzymes [6] = target: various enzymes (Homo sapiens, UniProt Q8IY84); settings: compound 1 uM
Chain of various enzymes (Homo sapiens, UniProt Q8IY84) (Q8IY84 whole entry): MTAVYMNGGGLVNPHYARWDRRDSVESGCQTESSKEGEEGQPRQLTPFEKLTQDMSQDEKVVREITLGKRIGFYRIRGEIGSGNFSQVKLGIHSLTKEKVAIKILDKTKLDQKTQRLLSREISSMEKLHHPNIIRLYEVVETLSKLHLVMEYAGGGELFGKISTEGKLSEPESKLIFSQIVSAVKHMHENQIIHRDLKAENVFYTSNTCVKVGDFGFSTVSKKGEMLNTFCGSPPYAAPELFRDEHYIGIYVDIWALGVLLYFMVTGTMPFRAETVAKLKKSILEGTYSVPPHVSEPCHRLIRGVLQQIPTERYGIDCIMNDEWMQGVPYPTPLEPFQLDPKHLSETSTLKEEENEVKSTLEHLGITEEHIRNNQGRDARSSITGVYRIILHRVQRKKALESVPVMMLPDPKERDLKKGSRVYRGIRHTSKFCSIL
Method: as §1

various enzymes [7] = target: various enzymes (Homo sapiens, UniProt P78368); settings: compound 1 uM
Chain of various enzymes (Homo sapiens, UniProt P78368) (P78368 whole entry): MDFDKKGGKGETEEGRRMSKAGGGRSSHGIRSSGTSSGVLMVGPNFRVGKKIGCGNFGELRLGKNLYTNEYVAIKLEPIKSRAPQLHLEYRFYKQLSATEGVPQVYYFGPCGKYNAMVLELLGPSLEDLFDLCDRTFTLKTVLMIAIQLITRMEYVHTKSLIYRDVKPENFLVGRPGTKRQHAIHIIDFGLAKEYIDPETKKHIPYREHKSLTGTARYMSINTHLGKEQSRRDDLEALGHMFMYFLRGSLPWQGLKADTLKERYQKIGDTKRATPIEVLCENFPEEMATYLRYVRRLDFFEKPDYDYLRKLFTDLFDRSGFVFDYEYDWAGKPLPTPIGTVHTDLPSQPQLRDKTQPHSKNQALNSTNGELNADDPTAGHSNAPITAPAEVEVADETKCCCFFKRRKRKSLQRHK
Method: as §1

various enzymes [8] = target: various enzymes (Homo sapiens, UniProt Q9Y2U5); settings: compound 1 uM
Chain of various enzymes (Homo sapiens, UniProt Q9Y2U5) (Q9Y2U5 whole entry): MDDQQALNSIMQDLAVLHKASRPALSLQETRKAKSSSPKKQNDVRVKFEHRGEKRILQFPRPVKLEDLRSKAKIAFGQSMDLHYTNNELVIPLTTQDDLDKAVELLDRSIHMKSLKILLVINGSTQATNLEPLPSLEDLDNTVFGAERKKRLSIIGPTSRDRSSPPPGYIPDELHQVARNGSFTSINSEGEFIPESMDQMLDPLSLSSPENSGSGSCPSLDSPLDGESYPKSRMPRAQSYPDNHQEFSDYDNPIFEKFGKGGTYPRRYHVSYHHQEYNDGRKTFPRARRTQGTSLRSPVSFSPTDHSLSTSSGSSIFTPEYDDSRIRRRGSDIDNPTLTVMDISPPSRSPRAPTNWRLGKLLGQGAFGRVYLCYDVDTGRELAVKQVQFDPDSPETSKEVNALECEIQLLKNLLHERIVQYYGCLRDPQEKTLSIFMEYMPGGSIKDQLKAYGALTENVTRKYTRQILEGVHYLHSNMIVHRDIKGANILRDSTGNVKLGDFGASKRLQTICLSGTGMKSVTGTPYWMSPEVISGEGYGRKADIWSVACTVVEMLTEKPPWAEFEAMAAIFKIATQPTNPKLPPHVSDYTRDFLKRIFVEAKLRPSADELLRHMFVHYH
Method: as §1

various enzymes [9] = target: various enzymes (Homo sapiens, UniProt Q9BYP7); settings: compound 1 uM
Method: as §1

various enzymes [10] = target: T2, various enzymes (Homo sapiens, UniProt Q9H093); settings: compound 1 uM
T2 sequence (Q9H093 1-628): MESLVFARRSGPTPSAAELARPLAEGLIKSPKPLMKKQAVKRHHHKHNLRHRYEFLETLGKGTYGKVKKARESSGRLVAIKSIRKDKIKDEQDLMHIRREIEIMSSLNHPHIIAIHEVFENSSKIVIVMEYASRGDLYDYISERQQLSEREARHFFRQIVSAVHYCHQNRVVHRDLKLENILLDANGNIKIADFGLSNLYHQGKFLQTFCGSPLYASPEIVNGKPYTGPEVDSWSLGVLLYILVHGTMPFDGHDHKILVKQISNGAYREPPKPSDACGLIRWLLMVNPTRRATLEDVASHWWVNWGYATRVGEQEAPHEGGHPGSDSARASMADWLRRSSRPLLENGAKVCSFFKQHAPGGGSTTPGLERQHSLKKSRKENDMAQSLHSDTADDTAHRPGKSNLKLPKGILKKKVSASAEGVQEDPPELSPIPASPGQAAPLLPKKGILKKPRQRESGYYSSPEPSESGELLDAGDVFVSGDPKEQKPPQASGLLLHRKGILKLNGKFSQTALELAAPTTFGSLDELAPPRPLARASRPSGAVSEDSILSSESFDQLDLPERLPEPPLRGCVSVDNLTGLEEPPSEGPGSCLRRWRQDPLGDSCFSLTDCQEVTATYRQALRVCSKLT
Method: as §1

various enzymes [11] = target: various enzymes (Homo sapiens, UniProt P42336, H1047L)
Method: as §1

various enzymes [12] = target: various enzymes (Homo sapiens, UniProt O75716); settings: compound 1 uM
Method: as §1

various enzymes [13] = target: various enzymes (Homo sapiens, UniProt P54762); settings: compound 1 uM
Chain of various enzymes (Homo sapiens, UniProt P54762) (P54762 18-984): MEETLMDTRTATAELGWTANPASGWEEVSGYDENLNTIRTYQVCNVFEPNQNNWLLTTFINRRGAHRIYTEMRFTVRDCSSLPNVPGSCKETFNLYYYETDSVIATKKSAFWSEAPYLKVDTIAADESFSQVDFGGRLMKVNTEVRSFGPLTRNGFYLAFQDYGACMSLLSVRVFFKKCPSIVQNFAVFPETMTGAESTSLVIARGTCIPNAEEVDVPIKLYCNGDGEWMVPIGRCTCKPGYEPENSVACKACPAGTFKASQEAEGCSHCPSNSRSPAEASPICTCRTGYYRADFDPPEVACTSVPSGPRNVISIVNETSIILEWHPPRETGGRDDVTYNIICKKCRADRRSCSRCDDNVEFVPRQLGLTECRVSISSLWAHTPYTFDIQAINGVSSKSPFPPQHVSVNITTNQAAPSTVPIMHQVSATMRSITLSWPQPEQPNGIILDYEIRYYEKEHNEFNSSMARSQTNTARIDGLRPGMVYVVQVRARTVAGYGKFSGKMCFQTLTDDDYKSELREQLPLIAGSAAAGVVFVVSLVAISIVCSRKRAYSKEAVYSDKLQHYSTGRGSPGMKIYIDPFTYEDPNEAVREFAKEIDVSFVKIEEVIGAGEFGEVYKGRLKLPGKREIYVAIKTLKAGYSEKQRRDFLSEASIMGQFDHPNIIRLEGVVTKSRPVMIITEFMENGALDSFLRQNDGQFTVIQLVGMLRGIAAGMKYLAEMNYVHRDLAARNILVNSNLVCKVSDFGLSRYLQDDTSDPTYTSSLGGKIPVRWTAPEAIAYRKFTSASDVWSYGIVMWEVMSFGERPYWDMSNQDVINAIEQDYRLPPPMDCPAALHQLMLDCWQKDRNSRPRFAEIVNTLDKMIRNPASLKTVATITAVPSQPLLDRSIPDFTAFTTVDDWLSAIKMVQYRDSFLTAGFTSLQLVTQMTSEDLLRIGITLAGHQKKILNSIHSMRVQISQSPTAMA
Method: as §1

various enzymes [14] = target: various enzymes (Homo sapiens, UniProt Q9UQM7); settings: compound 1 uM
Method: as §1

various enzymes [15] = target: various enzymes (Homo sapiens, UniProt Q9BZL6); settings: compound 1 uM
Chain of various enzymes (Homo sapiens, UniProt Q9BZL6) (Q9BZL6 whole entry): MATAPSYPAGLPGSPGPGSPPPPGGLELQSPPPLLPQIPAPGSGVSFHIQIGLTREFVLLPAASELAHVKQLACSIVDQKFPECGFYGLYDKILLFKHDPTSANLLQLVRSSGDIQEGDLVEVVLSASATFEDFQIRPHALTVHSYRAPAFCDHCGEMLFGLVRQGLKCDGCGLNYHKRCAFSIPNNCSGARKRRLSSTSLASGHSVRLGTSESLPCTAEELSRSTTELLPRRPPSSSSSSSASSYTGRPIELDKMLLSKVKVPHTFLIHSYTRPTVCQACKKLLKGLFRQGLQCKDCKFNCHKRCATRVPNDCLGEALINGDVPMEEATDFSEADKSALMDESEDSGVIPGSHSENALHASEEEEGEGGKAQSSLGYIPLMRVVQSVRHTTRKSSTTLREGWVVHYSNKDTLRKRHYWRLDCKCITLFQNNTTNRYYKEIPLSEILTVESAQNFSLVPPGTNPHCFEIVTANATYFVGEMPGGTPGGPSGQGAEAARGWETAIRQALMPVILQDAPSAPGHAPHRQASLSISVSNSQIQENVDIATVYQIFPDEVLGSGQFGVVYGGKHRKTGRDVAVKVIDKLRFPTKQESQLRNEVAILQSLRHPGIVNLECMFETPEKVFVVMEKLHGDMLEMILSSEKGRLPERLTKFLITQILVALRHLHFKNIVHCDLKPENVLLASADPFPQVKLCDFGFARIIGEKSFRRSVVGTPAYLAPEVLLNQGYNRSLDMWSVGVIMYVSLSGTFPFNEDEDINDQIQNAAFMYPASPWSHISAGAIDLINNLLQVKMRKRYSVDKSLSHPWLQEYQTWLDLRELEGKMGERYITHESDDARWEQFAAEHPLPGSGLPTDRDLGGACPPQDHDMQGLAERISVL
Method: as §1

various enzymes [16] = target: various enzymes (Homo sapiens, UniProt Q9Y2H9); settings: compound 1 uM
Method: as §1

various enzymes [17] = target: various enzymes (Homo sapiens, UniProt P36888, K663Q)
Method: as §1

various enzymes [18] = target: various enzymes (Homo sapiens, UniProt P08581, Y1235D)
Method: as §1

various enzymes [19] = target: various enzymes (Homo sapiens, UniProt Q13976); settings: compound 1 uM
Chain of various enzymes (Homo sapiens, UniProt Q13976) (Q13976 whole entry): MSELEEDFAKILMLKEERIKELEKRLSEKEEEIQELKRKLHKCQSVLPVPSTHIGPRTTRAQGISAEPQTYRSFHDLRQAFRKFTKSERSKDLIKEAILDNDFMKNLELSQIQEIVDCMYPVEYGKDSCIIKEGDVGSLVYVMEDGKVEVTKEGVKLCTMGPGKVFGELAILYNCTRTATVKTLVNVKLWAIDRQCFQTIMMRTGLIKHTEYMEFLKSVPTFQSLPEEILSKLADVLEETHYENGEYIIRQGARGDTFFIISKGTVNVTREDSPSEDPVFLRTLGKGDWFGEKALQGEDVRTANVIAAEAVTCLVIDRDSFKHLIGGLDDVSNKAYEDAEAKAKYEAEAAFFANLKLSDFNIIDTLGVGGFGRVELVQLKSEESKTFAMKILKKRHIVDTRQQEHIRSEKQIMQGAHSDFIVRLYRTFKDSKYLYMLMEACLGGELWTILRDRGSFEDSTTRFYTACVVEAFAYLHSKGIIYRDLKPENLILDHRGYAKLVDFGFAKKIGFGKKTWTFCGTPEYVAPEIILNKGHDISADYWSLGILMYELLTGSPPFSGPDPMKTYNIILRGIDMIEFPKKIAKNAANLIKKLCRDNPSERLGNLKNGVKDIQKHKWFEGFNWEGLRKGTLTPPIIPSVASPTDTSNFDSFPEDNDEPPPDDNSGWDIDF
Method: as §1

various enzymes [20] = target: various enzymes (Homo sapiens, UniProt Q9Y2H1); settings: compound 1 uM
Method: as §1

various enzymes [21] = target: various enzymes (Homo sapiens, UniProt Q9HC98); settings: compound 1 uM
Chain of various enzymes (Homo sapiens, UniProt Q9HC98) (Q9HC98 whole entry): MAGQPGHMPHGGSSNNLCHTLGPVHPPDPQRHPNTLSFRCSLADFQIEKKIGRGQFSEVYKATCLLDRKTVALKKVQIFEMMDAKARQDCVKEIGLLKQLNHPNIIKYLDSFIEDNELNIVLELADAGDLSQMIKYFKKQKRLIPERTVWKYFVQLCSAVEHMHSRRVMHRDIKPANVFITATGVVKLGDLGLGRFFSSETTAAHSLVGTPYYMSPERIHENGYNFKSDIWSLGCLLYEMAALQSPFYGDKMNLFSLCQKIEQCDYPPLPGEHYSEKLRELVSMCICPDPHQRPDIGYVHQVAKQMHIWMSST
Method: as §1

Chain of various enzymes (Homo sapiens, UniProt Q96RR4) (Q96RR4 whole entry): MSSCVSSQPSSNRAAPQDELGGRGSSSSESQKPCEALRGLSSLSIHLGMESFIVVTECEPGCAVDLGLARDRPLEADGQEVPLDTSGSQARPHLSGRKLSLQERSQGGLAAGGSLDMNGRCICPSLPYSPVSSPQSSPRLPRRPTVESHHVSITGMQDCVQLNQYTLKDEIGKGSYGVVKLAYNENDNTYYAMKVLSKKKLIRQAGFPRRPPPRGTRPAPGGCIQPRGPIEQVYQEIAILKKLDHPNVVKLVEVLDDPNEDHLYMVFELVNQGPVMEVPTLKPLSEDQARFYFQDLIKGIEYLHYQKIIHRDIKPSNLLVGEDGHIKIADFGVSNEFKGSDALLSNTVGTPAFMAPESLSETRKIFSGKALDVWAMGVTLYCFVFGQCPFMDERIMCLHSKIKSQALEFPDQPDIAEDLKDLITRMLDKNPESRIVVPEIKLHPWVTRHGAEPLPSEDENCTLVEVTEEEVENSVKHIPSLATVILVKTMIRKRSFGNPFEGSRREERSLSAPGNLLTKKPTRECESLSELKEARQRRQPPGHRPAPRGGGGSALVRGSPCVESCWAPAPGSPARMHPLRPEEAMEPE

Structure (SMILES) | Ambit profiling: CAMKK2 (various enzymes [1]) | Ambit profiling: PIM1 (various enzymes [2]) | Ambit profiling: NEK10 (various enzymes [3]) | Ambit profiling: BTK (various enzymes [4]) | Ambit profiling: LATS2 (various enzymes [5]) | Ambit profiling: NIM1 (various enzymes [6]) | Ambit profiling: CSNK1G2 (various enzymes [7]) | Ambit profiling: MAP3K2 (various enzymes [8]) | Ambit profiling: WNK3 (various enzymes [9]) | Ambit profiling: SNARK (various enzymes [10]) | Ambit profiling: STK16 (various enzymes [12]) | Ambit profiling: EPHB1 (various enzymes [13]) | Ambit profiling: CAMK2A (various enzymes [14]) | Ambit profiling: PRKD2 (various enzymes [15]) | Ambit profiling: MAST1 (various enzymes [16]) | Ambit profiling: PRKG1 (various enzymes [19]) | Ambit profiling: NDR2 (various enzymes [20]) | Ambit profiling: NEK6 (various enzymes [21]) | further results
CC(C)N1Cc2nn(C)cc2-c2cnc3[nH]cc(c3c2)-c2cn(nc2C(F)(F)F)CCCC1=O [Compound 45, (Z)-5-isopropyl-31-methyl-13-(trifluoromethyl)-11H,21H,31H-5-aza-2(3,5)-pyrrolo[2,3-b]pyridina-1(4,1),3(4,3)-dipyrazolacyclononaphan-6-one] | 5.8 | 75 | 97 | 55 | 100 | 100 | 100 | 0.45 | 100 | 14 | 1.9 | 51 | 7.7 | 43 | 22 | 100 | 92 | 98 | Ambit profiling: PIK3CA(H1047L) (various enzymes [11]; compound 1 uM): 100; Ambit profiling: FLT3(K663Q) (various enzymes [17]; compound 1 uM): 2; Ambit profiling: MET(Y1235D) (various enzymes [18]; compound 1 uM): 4.8
COc1c2c(nn1C)CN(C(C)C)C(=O)CCCn1cc(c(C(F)(F)F)n1)-c1c[nH]c3ncc-2cc13 [Compound 50, (Z)-5-isopropyl-35-methoxy-31-methyl-13-(trifluoromethyl)-11H,21H,31H-5-aza-2(3,5)-pyrrolo[2,3-b]pyridina-1(4,1),3(4,3)-dipyrazolacyclononaphan-6-one] | 5.8 | 77 | 87 | 56 | 97 | 100 | 83 | 0.5 | 100 | 47 | 12 | 48 | 12 | 55 | 40 | 100 | 78 | 100 | Ambit profiling: PIK3CA(H1047L) (various enzymes [11]): 83; Ambit profiling: FLT3(K663Q) (various enzymes [17]): 0.9; Ambit profiling: MET(Y1235D) (various enzymes [18]): 1.4
